Laboratory results published in US11485707B2, “Deuterated compounds as rock inhibitors” (Fochon Pharmaceuticals, Ltd., priority 2018, dated 2022).
Where a name gives a salt, the structure may show the parent alone.

Conditions: male Chinchilla rabbits, topical to right eye once daily for 3 days, 30 μL/eye/dose; dosing on day 3 at 24 h; vs control
Procedure: ROCK In Vivo Inhibition Activity-Method C
Eighteen male rabbits were randomly assigned to 3 groups (6 animals/group). […] Clinical observations and ophthalmic examinations were performed once daily. IOP was measured by TONOVET Plus before first dosing, and at 0.5, 2, 4, 6 and 24 h after each first dosing on day 1 and day 3.
The change of IOP % was calculated using the following formula: The change of IOP %(ΔIOP %)=[IOP(time)−IOP(control)]/IOP(control)*100).
Select compounds prepared as described above were assayed according to the biological procedures described in Method C.

In order of rising ΔIOP %:
1. [2H]C([2H])([2H])c1ccc(C(=O)OC([2H])([2H])c2ccc([C@@]([2H])(CN)C(=O)Nc3ccc4cnccc4c3)cc2)c(C([2H])([2H])[2H])c1 [Example 6, (S)-(4-(3-amino-1-(isoquinolin-6-ylamino)-1-oxopropan-2-yl-2-d)phenyl)methyl-d2 2,4-bis(methyl-d3)benzoate dihydrochloride]  −16.08%
2. [2H]c1nccc2cc(NC(=O)[C@@H](c3ccc(COC(=O)c4ccc(C)cc4C)cc3)C([2H])([2H])N)ccc12 [Example 4, (S)-4-(3-amino-1-((isoquinolin-6-yl-1-d)amino)-1-oxopropan-2-yl-3,3-d2)benzyl 2,4-dimethylbenzoate dihydrochloride]  −15.63%
3. [2H]C([2H])(N)[C@@H](C(=O)Nc1ccc2cnccc2c1)c1ccc(COC(=O)c2ccc(C)cc2C)cc1 [Example 11, (S)-4-(3-amino-1-(isoquinolin-6-ylamino)-1-oxopropan-2-yl-3,3-d2) benzyl 2,4-dimethylbenzoate dihydrochloride]  −9.57%
4. [2H]c1nccc2cc(NC(=O)[C@]([2H])(CN)c3ccc(C([2H])([2H])OC(=O)c4ccc(C)cc4C)cc3)ccc12 [Example 13, (S)-(4-(3-amino-1-((isoquinolin-6-yl-1-d)amino)-1-oxopropan-2-yl-2-d)phenyl) methyl-d2 2,4-dimethylbenzoate dihydrochloride]  −8.48%
5. [2H]C([2H])(OC(=O)c1ccc(C)cc1C)c1ccc([C@H](C(=O)Nc2ccc3cnccc3c2)C([2H])([2H])N)cc1 [Example 8, (S)-(4-(3-amino-1-(isoquinolin-6-ylamino)-1-oxopropan-2-yl-3,3-d2)phenyl)methyl-d2 2,4-dimethylbenzoate dihydrochloride]  −7.52%
6. [2H]C([2H])([2H])c1ccc(C(=O)OCc2ccc([C@@H](CN)C(=O)Nc3ccc4cnccc4c3)cc2)c(C([2H])([2H])[2H])c1 [Example 14, (S)-4-(3-amino-1-(isoquinolin-6-ylamino)-1-oxopropan-2-yl)benzyl 2,4-bis(methyl-d3)benzoate dihydrochloride]  −5.81%
7. [2H]c1nccc2cc(NC(=O)[C@@H](c3ccc(C([2H])([2H])OC(=O)c4ccc(C)cc4C)cc3)C([2H])([2H])N)ccc12 [Example 12, (S)-(4-(3-amino-1-((isoquinolin-6-yl-1-d)amino)-1-oxopropan-2-yl-3,3-d2)phenyl)methyl-d2 2,4-dimethylbenzoate dihydrochloride]  −5.23%
8. [2H]c1nccc2cc(NC(=O)[C@@H](c3ccc(COC(=O)c4ccc(C([2H])([2H])[2H])cc4C([2H])([2H])[2H])cc3)C([2H])([2H])N)ccc12 [Example 21, (S)-4-(3-amino-1-((isoquinolin-6-yl-1-d)amino)-1-oxopropan-2-yl-3,3-d2) benzyl 2,4-bis(methyl-d3)benzoate dihydrochloride]  −5.06%
9. [2H]C([2H])(OC(=O)c1ccc(C)cc1C)c1ccc([C@@H](CN)C(=O)Nc2ccc3cnccc3c2)cc1 [Example 3, (S)-(4-(3-amino-1-(isoquinolin-6-ylamino)-1-oxopropan-2-yl)phenyl)methyl-d2 2,4-dimethylbenzoate]  −5.02%
10. [2H]c1nccc2cc(NC(=O)[C@H](CN)c3ccc(C([2H])([2H])OC(=O)c4ccc(C([2H])([2H])[2H])cc4C([2H])([2H])[2H])cc3)ccc12 [Example 20, (S)-(4-(3-amino-1-((isoquinolin-6-yl-1-d)amino)-1-oxopropan-2-yl)phenyl) methyl-d2 2,4-bis (methyl-d3)benzoate dihydrochloride]  −4.89%
11. Cc1ccc(C(=O)OCc2ccc([C@@H](CN)C(=O)Nc3ccc4cnccc4c3)cc2)c(C)c1.Cl.Cl [Reference compound 1, (S)-4-(3-amino-1-(isoquinolin-6-ylamino)-1-oxopropan-2-yl)benzyl 2,4-dimethylbenzoate dihydrochloride, reference compound]  −4.35%
12. [2H]C([2H])([2H])c1ccc(C(=O)OC([2H])([2H])c2ccc([C@@H](CN)C(=O)Nc3ccc4cnccc4c3)cc2)c(C([2H])([2H])[2H])c1 [Example 15, (S)-(4-(3-amino-1-(isoquinolin-6-ylamino)-1-oxopropan-2-yl)phenyl)methyl-d2 2,4-bis(methyl-d3)benzoate dihydrochloride]  −4.25%
13. [2H]c1nccc2cc(NC(=O)[C@H](CN)c3ccc(COC(=O)c4ccc(C([2H])([2H])[2H])cc4C([2H])([2H])[2H])cc3)ccc12 [Example 19, (S)-4-(3-amino-1-((isoquinolin-6-yl-1-d)amino)-1-oxopropan-2-yl)benzyl 2,4-bis(methyl-d3)benzoate dihydrochloride]  −3.3%
14. [2H]C([2H])(OC(=O)c1ccc(C)cc1C)c1ccc([C@@]([2H])(CN)C(=O)Nc2ccc3cnccc3c2)cc1 [Example 9, (S)-(4-(3-amino-1-(isoquinolin-6-ylamino)-1-oxopropan-2-yl-2-d)phenyl)methyl-d2 2,4-dimethylbenzoate dihydrochloride]  −3.06%
15. [2H]c1nccc2cc(NC(=O)[C@H](CN)c3ccc(COC(=O)c4ccc(C)cc4C)cc3)ccc12 [Example 1, (S)-4-(3-amino-1-((isoquinolin-6-yl-1-d)amino)-1-oxopropan-2-yl)benzyl 2,4-dimethylbenzoate]  −1.5%
16. [2H]C([2H])([2H])c1ccc(C(=O)OCc2ccc([C@H](C(=O)Nc3ccc4cnccc4c3)C([2H])([2H])N)cc2)c(C([2H])([2H])[2H])c1 [Example 16, (S)-4-(3-amino-1-(isoquinolin-6-ylamino)-1-oxopropan-2-yl-3,3-d2)benzyl 2,4-bis(methyl-d3)benzoate dihydrochloride]  −1.44%
17. [2H]c1nccc2cc(NC(=O)[C@H](CN)c3ccc(C([2H])([2H])OC(=O)c4ccc(C)cc4C)cc3)ccc12 [Example 18, (S)-(4-(3-amino-1-((isoquinolin-6-yl-1-d)amino)-1-oxopropan-2-yl)phenyl) methyl-d2 2,4-dimethylbenzoate]  −1.1%
18. [2H]c1nccc2cc(NC(=O)[C@]([2H])(CN)c3ccc(C([2H])([2H])OC(=O)c4ccc(C([2H])([2H])[2H])cc4C([2H])([2H])[2H])cc3)ccc12 [Example 23, (S)-(4-(3-amino-1-((isoquinolin-6-yl-1-d)amino)-1-oxopropan-2-yl-2-d)phenyl) methyl-d2 2,4-bis (methyl-d3)benzoate dihydrochloride]  −0.87%
19. [2H]C([2H])(OC(=O)c1ccc(C)cc1C)c1ccc([C@]([2H])(C(=O)Nc2ccc3cnccc3c2)C([2H])([2H])N)cc1 [Example 10, (S)-(4-(3-amino-1-(isoquinolin-6-ylamino)-1-oxopropan-2-yl-2,3,3-d3)phenyl)methyl-d2 2,4-dimethylbenzoate dihydrochloride]  −0.78%
20. [2H]c1nccc2cc(NC(=O)[C@@H](c3ccc(C([2H])([2H])OC(=O)c4ccc(C([2H])([2H])[2H])cc4C([2H])([2H])[2H])cc3)C([2H])([2H])N)ccc12 [Example 22, (S)-(4-(3-amino-1-((isoquinolin-6-yl-1-d)amino)-1-oxopropan-2-yl-3,3-d2)phenyl) methyl-d2 2,4-bis (methyl-d3)benzoate dihydrochloride]  0.08%
21. [2H]c1nccc2cc(NC(=O)[C@@]([2H])(c3ccc(C([2H])([2H])OC(=O)c4ccc(C)cc4C)cc3)C([2H])([2H])N)ccc12 [Example 7, (S)-(4-(3-amino-1-((isoquinolin-6-yl-1-d)amino)-1-oxopropan-2-yl-2,3,3-d3)phenyl)methyl-d2 2,4-dimethylbenzoate dihydrochloride]  0.48%
22. [2H]C([2H])([2H])c1ccc(C(=O)OC([2H])([2H])c2ccc([C@]([2H])(C(=O)Nc3ccc4cnccc4c3)C([2H])([2H])N)cc2)c(C([2H])([2H])[2H])c1 [Example 5, (S)-(4-(3-amino-1-(isoquinolin-6-ylamino)-1-oxopropan-2-yl-2,3,3-d3)phenyl)methyl-d2 2,4-bis(methyl-d3)benzoate dihydrochloride]  1.19%
